These results are taken from patent US12030878B2 (BRISTOL-MYERS SQUIBB COMPANY, priority 2017, dated 2024).

Type in all cases: cell-based
For one assay, the target named is T1, human TLR7 (Homo sapiens, UniProt Q9NYK1).
T1 construct: host or cells: HEK-Blue cells
T1 sequence (Q9NYK1 27-1049): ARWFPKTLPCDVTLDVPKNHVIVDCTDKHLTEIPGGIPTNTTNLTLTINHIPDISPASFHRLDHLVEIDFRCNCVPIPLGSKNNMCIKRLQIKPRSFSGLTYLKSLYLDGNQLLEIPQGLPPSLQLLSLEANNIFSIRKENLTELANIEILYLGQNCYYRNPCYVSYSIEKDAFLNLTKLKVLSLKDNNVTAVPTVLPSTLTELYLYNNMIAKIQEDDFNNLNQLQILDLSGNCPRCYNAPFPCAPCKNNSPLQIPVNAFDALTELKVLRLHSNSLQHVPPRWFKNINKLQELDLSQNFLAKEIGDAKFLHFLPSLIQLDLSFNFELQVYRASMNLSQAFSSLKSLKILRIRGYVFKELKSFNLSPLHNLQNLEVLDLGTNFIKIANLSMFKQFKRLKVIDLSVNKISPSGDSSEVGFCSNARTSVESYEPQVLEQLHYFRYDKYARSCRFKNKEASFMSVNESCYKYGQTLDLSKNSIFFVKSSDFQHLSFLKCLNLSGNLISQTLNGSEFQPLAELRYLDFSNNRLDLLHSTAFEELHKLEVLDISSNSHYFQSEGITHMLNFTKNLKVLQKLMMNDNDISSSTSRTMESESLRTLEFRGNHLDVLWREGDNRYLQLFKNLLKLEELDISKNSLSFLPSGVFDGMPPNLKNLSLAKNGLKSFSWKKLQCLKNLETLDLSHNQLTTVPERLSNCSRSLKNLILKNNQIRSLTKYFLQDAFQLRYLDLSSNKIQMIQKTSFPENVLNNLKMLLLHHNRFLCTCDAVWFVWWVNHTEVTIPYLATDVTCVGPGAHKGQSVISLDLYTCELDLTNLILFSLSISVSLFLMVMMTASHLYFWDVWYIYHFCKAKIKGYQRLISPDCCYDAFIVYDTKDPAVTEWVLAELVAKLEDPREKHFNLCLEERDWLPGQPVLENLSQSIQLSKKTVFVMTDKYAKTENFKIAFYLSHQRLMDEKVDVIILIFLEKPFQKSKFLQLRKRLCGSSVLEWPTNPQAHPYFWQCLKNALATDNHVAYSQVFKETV
The assay can be described thus: TLR7 inhibition reporter assay (HEK-Blue SEAP). Conditions: HEK-Blue cells overexpressing human TLR7, stimulated with gardiquimod 7.5 μM, 22 hour incubation. The gist of the method: (§1)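 HEK-Blue cells with NF-κB/AP-1-driven SEAP reporter; compounds 0.05 nM-50 μM, 30 min pre-treatment at room temperature, then agonist: gardiquimod 7.5 μM (TLR7), R848 15.9 μM (TLR8) or ODN2006 5 nM (TLR9). SEAP read after 22 h at 37 °C; percent inhibition versus agonist-plus-DMSO and reference-inhibitor wells.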

For the next assay, the target named is T2, human TLR8 (Homo sapiens, UniProt Q9NR97).
T2 construct: host or cells: HEK-Blue cells
T2 sequence (Q9NR97 27-1041): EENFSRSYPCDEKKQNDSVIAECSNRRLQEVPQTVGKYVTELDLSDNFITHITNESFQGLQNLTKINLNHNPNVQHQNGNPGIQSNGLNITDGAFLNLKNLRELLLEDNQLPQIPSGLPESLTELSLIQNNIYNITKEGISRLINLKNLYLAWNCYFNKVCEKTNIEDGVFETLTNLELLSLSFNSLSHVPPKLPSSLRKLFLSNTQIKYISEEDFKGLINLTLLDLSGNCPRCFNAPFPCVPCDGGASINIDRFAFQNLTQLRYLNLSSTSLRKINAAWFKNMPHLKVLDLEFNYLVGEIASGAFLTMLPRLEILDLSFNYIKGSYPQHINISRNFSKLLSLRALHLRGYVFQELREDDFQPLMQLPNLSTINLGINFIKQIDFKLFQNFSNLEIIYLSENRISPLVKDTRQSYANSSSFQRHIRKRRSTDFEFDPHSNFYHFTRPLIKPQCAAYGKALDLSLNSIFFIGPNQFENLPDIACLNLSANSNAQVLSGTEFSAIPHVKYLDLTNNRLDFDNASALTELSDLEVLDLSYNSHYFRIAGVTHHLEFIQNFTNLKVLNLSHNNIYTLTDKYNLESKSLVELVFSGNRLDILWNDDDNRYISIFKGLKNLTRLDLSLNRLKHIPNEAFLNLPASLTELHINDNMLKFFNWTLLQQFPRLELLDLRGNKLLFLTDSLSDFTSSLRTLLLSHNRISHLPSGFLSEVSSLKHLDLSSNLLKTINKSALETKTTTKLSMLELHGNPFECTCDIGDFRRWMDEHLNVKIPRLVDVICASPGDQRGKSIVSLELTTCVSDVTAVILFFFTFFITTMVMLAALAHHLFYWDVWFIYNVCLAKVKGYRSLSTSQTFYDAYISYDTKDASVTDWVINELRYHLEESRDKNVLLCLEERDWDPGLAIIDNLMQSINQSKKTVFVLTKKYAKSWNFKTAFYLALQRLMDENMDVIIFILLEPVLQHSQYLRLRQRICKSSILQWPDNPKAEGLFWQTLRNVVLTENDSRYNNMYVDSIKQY
The assay can be described thus: TLR8 inhibition reporter assay (HEK-Blue SEAP). Conditions: HEK-Blue cells overexpressing human TLR8, stimulated with R848 15.9 μM, 22 hour incubation. In short, it runs like this: as §1

For a further assay, the target named is T3, human TLR9 (Homo sapiens, UniProt Q9NR96).
T3 construct: host or cells: HEK-Blue cells
T3 sequence (Q9NR96 26-1032): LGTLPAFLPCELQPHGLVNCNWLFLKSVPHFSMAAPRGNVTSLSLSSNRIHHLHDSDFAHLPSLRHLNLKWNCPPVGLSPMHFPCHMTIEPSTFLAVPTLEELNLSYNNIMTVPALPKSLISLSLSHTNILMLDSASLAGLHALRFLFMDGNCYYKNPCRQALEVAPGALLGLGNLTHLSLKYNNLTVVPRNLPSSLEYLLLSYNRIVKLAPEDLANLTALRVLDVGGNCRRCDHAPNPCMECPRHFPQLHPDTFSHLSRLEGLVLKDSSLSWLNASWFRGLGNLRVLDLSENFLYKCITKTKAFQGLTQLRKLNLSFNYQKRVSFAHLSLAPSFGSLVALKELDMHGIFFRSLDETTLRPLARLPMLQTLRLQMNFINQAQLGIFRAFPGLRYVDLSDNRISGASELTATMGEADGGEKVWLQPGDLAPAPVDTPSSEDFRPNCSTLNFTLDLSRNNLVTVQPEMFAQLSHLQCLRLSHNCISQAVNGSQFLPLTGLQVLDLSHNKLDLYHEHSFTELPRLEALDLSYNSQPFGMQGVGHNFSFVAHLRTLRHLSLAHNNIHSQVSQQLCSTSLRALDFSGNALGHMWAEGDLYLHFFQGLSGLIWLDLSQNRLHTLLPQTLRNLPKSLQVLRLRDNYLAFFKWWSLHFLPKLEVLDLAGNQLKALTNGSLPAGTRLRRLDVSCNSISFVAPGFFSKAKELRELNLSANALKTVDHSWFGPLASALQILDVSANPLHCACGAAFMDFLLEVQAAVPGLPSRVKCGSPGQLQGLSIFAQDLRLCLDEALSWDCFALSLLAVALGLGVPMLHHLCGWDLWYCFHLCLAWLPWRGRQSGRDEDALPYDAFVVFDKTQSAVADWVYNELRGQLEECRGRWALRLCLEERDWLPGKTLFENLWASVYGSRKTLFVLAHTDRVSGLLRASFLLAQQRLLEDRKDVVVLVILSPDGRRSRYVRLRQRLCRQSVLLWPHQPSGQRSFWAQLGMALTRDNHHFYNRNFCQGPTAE
The assay can be described thus: TLR9 inhibition reporter assay (HEK-Blue SEAP). Conditions: HEK-Blue cells overexpressing human TLR9, stimulated with ODN2006 5 nM, 22 hour incubation. In short, it runs like this: as §1
(In general: In a reporter assay the amount or activity of a reporter protein is the signal.)

By IC50 is commonly meant the concentration at which inhibition is half-maximal. As to `Cc1cc(-c2[nH]c3ccc(OC4CCC(OC5CCNCC5)CC4)cc3c2C(C)C)ccn1` (stereo not drawn) [Example 185, 3-isopropyl-2-(2-methylpyridin-4-yl)-5-((4-(piperidin-4-yloxy)cyclohexyl)oxy)-1H-indole], the figures for the IC50 on human TLR7, against human TLR8 and against human TLR9 were 50.2 nM, 22.6 nM and 2990 nM, respectively.
Regarding `Cc1cc(-c2[nH]c3ccc(OC4CCN(C(C)C)CC4)cc3c2C(C)C)ccn1` [Example 186, 3-isopropyl-5-((1-isopropylpiperidin-4-yl)oxy)-2-(2-methylpyridin-4-yl)-1H-indole], the IC50 at human TLR7 amounted to 70.7 nM; on human TLR8 it was 3.1 nM; at human TLR9 it was 2670 nM.
Taken in the same sequence, the figures for `Cc1cc(-c2[nH]c3ccc(OCC4CCN(C)CC4)cc3c2C(C)C)ccn1` [Example 188, 3-isopropyl-5-((1-methylpiperidin-4-yl)methoxy)-2-(2-methylpyridin-4-yl)-1H-indole] were 44.7 nM, 2.1 nM and 1540 nM.
Taken in the same sequence, the figures for `CCc1c(-c2ccnc(C)c2)[nH]c2ccc(OC3CCN(C)CC3)cc12` [Example 189, 3-ethyl-5-((1-methylpiperidin-4-yl)oxy)-2-(2-methylpyridin-4-yl)-1H-indole] were 166 nM, 6.5 nM and 1080 nM.
The like results for `CCc1c(-c2ccnc(C)c2)[nH]c2ccc(OC3CCN(C(C)C)C3)cc12` (stereo not drawn) [Example 190, 3-ethyl-5-((1-isopropylpyrrolidin-3-yl)oxy)-2-(2-methylpyridin-4-yl)-1H-indole] were, in that order, 954 nM, 118 nM and 1220 nM.
As for `Cc1cc(-c2[nH]c3ccc(OCC4CCN(C(C)C)CC4)cc3c2C(C)C)ccn1` [Example 191, 3-isopropyl-5-((1-isopropylpiperidin-4-yl)methoxy)-2-(2-methylpyridin-4-yl)-1H-indole], the IC50 is 84.2 nM against human TLR7, 5.8 nM against human TLR8 and 2810 nM against human TLR9.
The like results for `CCc1c(-c2ccnc(C)c2)[nH]c2ccc(OCCN3CCCC3)cc12` [Example 192, 3-ethyl-2-(2-methylpyridin-4-yl)-5-(2-(pyrrolidin-1-yl)ethoxy)-H-indole] were, in that order, 1030 nM, 50.8 nM and 774 nM.
Taken in the same sequence, the figures for `Cc1cc(-c2[nH]c3ccc(O[C@@H]4CCN(C)C4)cc3c2C(C)C)ccn1` [Example 193, (R)-3-isopropyl-2-(2-methylpyridin-4-yl)-5-((1-methylpyrrolidin-3-yl)oxy)-1H-indole] were 15.1 nM, 6.4 nM and 884 nM.
Taken in the same sequence, the figures for `COCCN1CCC(COc2ccc3[nH]c(-c4ccnc(C)c4)c(C(C)C)c3c2)C1` (stereo not drawn) [Example 194, 3-isopropyl-5-((1-(2-methoxyethyl)pyrrolidin-3-yl)methoxy)-2-(2-methylpyridin-4-yl)-1H-indole] were 113 nM, 13.7 nM and 1460 nM.
Take `Cc1cc(-c2[nH]c3ccc(OC4CCN(C5CCN(C(C)C)CC5)CC4)cc3c2C(C)C)ccn1` [Example 195, 3-isopropyl-5-((1′-isopropyl-[1,4′-bipiperidin]-4-yl)oxy)-2-(2-methylpyridin-4-yl)-1H-indole]: the IC50 is 6 nM against human TLR7, 0.6 nM against human TLR8 and 58 nM at human TLR9.
The like results for `Cc1cc(-c2[nH]c3ccc(OC4CCN(C(=O)CN(C)C)CC4)cc3c2C(C)C)ccn1` [Example 196, 2-(dimethylamino)-1-(4-((3-isopropyl-2-(2-methylpyridin-4-yl)-1H-indol-5-yl)oxy)piperidin-1-yl)ethan-1-one] were, in that order, 9.9 nM, 11.8 nM and 1420 nM.
Taken in the same sequence, the figures for `Cc1cc(-c2[nH]c3ccc(OC4CCN(CC(=O)O)CC4)cc3c2C(C)C)cc(C)n1` [Example 197, 2-(4-((2-(2,6-dimethylpyridin-4-yl)-3-isopropyl-1H-indol-5-yl)oxy)piperidin-1-yl)acetic acid] were 679 nM, 462 nM and 25200 nM.
